Measurements: patent US11274073B2, “TRPV1 modulator compounds” (ANTALGENICS, S.L., priority 2017, dated 2022)

Key:
rat TRPV1 channel [1] = target: T1, rat TRPV1 channel (Rattus norvegicus, UniProt O35433); assay: Calcium microfluorometry assay on TRPV1-SH-SY5Y cells, single concentration 10 μM; type: cell-based; conditions: for TRPV1 activation at 10 μM (% ± SD): compound 10 μM, Fluo-4 NW fluorescence, Cap (10 μM capsaicin) = 100%; for TRPV1 blockage at 10 μM (% ± SD): compound 10 μM before stimulation with 10 μM capsaicin, RR (10 μM Ruthenium Red) = 100%
T1 construct: expressed in transfected cells; host or cells: SH-SY5Y (human neuroblastoma) stably expressing rat TRPV1, under puromycin selection
Description: (§1) The activity of the compounds was determined on TRPV1 expressing cells (TRPV1-SH-SY5Y) by Calcium microfluorometry assay.
(§2) SH-SY5Y cells stably expressing rat TRPV1 channel (SH-SY5Y-TRPV1) were grown in Earle's minimum essential medium (MEM) containing 10% (v/v) of FCS, 1% nonessential amino acids, 2 mM L-glutamine, 100 μg/ml streptomycin, 100 U/ml penicillin, and 0.4 μg/ml puromycin in a humidity-controlled incubator with 5% CO2 and at 37° C. For fluorescence assays, cells expressing TRPV1 channel (TRPV1-SH-SY5Y) were seeded in 96-well plates (Corning Incorporated, Corning, N.Y.) at a cell density of 40,000 cells 2 days before treatment. The day of treatment the medium was replaced with 100 μL of the dye loading solution Fluo-4 NW supplemented with probenecid 2.5 mM. After incubation at 37° C. in a humidified atmosphere of 5% CO2 for 60 minutes, plates were transferred to a fluorescence plate reader (Polastar Omega BMG Labtech). The baseline fluorescence of Fluo-4 dye ([…]) was recorded for 4 cycles. […] The antagonist (10 μM Ruthenium Red for TRPV1) was added for the blockade. The changes in fluorescence intensity were recorded during 10 cycles more.

rat TRPV1 channel [2] = target: T1, rat TRPV1 channel; assay: Dose response measurements (EC50/IC50), calcium microfluorometry on TRPV1-SH-SY5Y cells; type: cell-based; conditions: n=3 in 3 independent experiments; for EC50: TRPV1 activation; for IC50: TRPV1 blockage
Description: as §1, §2
Normalized responses (%) versus log [μM] were adjusted to a non-linear fit with variable slope, a four-parameter dose-response curve Y=100/(1+10^((LogEC50−X)*HillSlope)) where […] or just dose-response curve Y=100/(1+10^((LogEC50−X))). EC50 are expressed with 95% confident interval followed by r^2 for regression adjustment. All data are expressed as mean±standard error of the mean […]. Each condition was assessed by triplicate (n=3) in 3 independent experiments (N=3).

C57-mice = assay: CFA-induced paw inflammation model of inflammatory pain, thermal hyperalgesia (paw withdrawal latency); type: in vivo; conditions: 24 h after CFA
Description: Data are given as mean±SEM n=6. 2-way ANOVA with Bonferroni post hoc test. *P<0.05; **P<0.01, ***P<0.001, […].
One of the compounds with higher potency (Ex-37) was selected to be tested in a model of inflammatory pain. C57-mice (≈30 g) were used for the study. C57BL/6 were obtained from Janvier, France. Complete Freund's adjuvant (CFA) emulsion (1:1 oil/saline, 0.5 mg/ml) was injected into the plantar surface (10 μl) of the right hind paw (Garcia-Martinez et al., 2006). 24 h after CFA injection, compound Ex-37 was administered intravenously (at 1 mg/kg, 3 mg/kg or 10 mg/kg) or intraplantar (at 10 mg/kg, 30 mg/kg or 100 mg/kg)) on the right hind paw. Thermal hyperalgesia was monitored 24 h after CFA injection and up to 2 h after administering the compound with an Ugo Basile Dynamic Plantar Aesthesiometer as reported previously (Garcia-Martinez et al., 2006). In brief, mice were habituated to an apparatus consisting of individual Perspex boxes on an elevated glass table. A mobile radiant heat source was located under the table and focused on the hind paw. Paw withdrawal latencies were defined as the time taken by the mouse to remove its hind paw from the heat source. A cutoff point of 25 s was set to prevent tissue damage.

T1 sequence (O35433 whole entry): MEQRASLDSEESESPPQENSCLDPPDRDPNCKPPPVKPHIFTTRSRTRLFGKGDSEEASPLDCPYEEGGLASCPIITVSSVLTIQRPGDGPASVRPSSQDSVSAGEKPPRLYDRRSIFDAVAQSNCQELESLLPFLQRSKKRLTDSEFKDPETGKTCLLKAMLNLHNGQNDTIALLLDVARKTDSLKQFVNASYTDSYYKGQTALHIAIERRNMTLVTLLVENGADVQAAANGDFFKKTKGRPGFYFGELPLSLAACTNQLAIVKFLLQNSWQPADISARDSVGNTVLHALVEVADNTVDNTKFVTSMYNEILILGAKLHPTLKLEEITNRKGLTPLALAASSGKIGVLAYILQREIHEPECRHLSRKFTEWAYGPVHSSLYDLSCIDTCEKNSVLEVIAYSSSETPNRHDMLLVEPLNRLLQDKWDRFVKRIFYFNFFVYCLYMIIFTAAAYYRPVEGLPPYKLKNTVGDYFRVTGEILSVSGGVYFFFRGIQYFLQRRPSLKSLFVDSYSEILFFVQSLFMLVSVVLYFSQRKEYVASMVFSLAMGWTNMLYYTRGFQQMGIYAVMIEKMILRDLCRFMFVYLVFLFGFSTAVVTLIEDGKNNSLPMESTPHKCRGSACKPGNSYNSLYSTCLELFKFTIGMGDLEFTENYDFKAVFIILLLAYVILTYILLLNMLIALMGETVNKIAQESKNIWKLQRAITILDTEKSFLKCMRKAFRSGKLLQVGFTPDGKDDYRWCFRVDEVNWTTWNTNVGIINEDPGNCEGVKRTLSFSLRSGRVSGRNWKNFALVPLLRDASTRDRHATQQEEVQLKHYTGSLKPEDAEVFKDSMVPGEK

COc1cc(CNC(=O)COC(=O)CC/C(C)=C/CC/C(C)=C/CC/C=C(\C)CCC=C(C)CCC=C(C)C)ccc1O (stereo in doubt) [Ex-52, (4E,8E,12E,16E)-2-((4-hydroxy-3-methoxybenzyl)-amino)-2-oxoethyl 4,8,13, 17,21-pentamethyldocosa-4,8,12,16,20-pentaenoate]
TRPV1 activation at 10 μM (% ± SD) (rat TRPV1 channel [1]): 79.31 ± 6.41%
EC50 (rat TRPV1 channel [2]): 0.04 ± 0.008 µM

CC(C)=CCCC(C)=CCC/C(C)=C/CC/C=C(\C)CC/C=C(\C)CCC(=O)OCC(=O)NCc1ccc(O)c(O)c1 (stereo in doubt) [Ex-56, (4E,8E,12E,16E)-2-((3,4-dihydroxybenzyl)amino)-2-oxoethyl 4,8,13,17,21-pentamethyldocosa-4,8,12,16,20-pentaenoate]
TRPV1 activation at 10 μM (% ± SD) (rat TRPV1 channel [1]): 83.71 ± 6.00%
EC50 (rat TRPV1 channel [2]): 0.015 ± 0.02 µM

COc1cc(CNC(=O)COC(=O)/C=C(\C)CCC=C(C)C)ccc1O [Ex-32, (E)-2-((4-hydroxy-3-methoxy-benzyl)amino)-2-oxoethyl 3,7-dimethylocta-2,6-dienoate]
TRPV1 activation at 10 μM (% ± SD) (rat TRPV1 channel [1]): 75.90 ± 2.49%
EC50 (rat TRPV1 channel [2]): 0.28 ± 0.08 µM

CCCCCCCCCCCC(=O)OCC(=O)NCc1ccc(O)c(OC)c1 [Ex-36, 2-((4-hydroxy-3-methoxy-benzyl)amino)-2-oxoethyl dodecanoate]
TRPV1 activation at 10 μM (% ± SD) (rat TRPV1 channel [1]): 74.80 ± 8.30%
EC50 (rat TRPV1 channel [2]): 0.08 ± 0.03 µM

CCCCCCCCCCCC(=O)OCC(=O)NCc1cc(OC)c(O)cc1I [Ex-37, 2-((4-hydroxy-2-iodo-5-methoxybenzyl)amino)-2-oxoethyl dodecanoate]
TRPV1 blockage at 10 μM (% ± SD) (rat TRPV1 channel [1]): 43.18 ± 10.07%
IC50 (rat TRPV1 channel [2]): 0.86 ± 0.51 µM
antinociceptive effect in the thermal hyperalgesia test, intraplantar (C57-mice; intraplantar at 10, 30 or 100 mg/kg on the right hind paw, FIG. 2): showed antinociceptive effects
antinociceptive effect in the thermal hyperalgesia test, intravenous (C57-mice; intravenously at 1, 3 or 10 mg/kg, FIG. 1): showed antinociceptive effects

CC(C)=CCC/C(C)=C/C(=O)OCC(=O)NCc1ccc(O)c(O)c1 [Ex-54, (E)-2-((3,4-dihydroxybenzyl)amino)-2-oxoethyl 3,7-dimethylocta-2,6-dienoate]
TRPV1 activation at 10 μM (% ± SD) (rat TRPV1 channel [1]): 77.42 ± 5.17%
EC50 (rat TRPV1 channel [2]): 0.11 ± 0.02 µM

CC(C)=CCC/C(C)=C/C(=O)OCC(=O)NCc1cc(O)c(O)cc1I [Ex-55, (E)-2-((4,5-dihydroxy-2-iodobenzyl)amino)-2-oxoethyl 3,7-dimethylocta-2,6-dienoate]
TRPV1 blockage at 10 μM (% ± SD) (rat TRPV1 channel [1]): 104.22 ± 12.65%
IC50 (rat TRPV1 channel [2]): 6.82 ± 1.38 µM

CCCCCCCC/C=C\CCCCCCCC(=O)OCC(=O)NCCc1cc(O)c(O)cc1I [Ex-63, 2-((4,5-dihydroxy-2-iodophenethyl)amino)-2-oxoethyl oleate]
TRPV1 blockage at 10 μM (% ± SD) (rat TRPV1 channel [1]): 1.13 ± 5.56%

CCCCC/C=C\C/C=C\C/C=C\C/C=C\CCCC(=O)OCC(=O)NCCc1ccc(O)c(O)c1 [Ex-64, (5Z,8Z,11Z,14Z)-2-((3,4-dihydroxyphenethyl)amino)-2-oxoethyl icosa-5,8,11,14-tetraenoate]
TRPV1 activation at 10 μM (% ± SD) (rat TRPV1 channel [1]): 79.05 ± 11.25%

CCCCC/C=C\C/C=C\C/C=C\C/C=C\CCCC(=O)OCC(=O)NCCc1cc(O)c(O)cc1I [Ex-65, (5Z,8Z,11Z,14Z)-2-((4,5-dihydroxy-2-iodophenethyl)-amino)-2-oxoethyl icosa-5,8,11,14-tetraenoate]
TRPV1 blockage at 10 μM (% ± SD) (rat TRPV1 channel [1]): 6.71 ± 2.18%

N.N.N.N.N.N.N.N.N.N.N.N.N.N.[Cl-].[Cl-].[Cl-].[Cl-].[Cl-].[Cl-].[O-2].[O-2].[Ru+3].[Ru+3].[Ru+4] [RR, Ruthenium Red, reference compound]
TRPV1 blockage at 10 μM (% ± SD) (rat TRPV1 channel [1]): 100%
